Source: patent US20240327351A1, “AMIDE AND ETHER SUBSTITUTED N-(1H-INDOL-7-YL)BENZENESULFONAMIDES AND USES THEREOF” (TRIANA BIOMEDICINES, INC., priority 2021, published 2024)
pEC50, pIC50: −log10 of the molar value.

How the values were obtained:
DCAF15/RBM39 = DCAF15/RBM39 (Homo sapiens, UniProt Q14498+Q66K64); assay: AlphaLISA compound-induced DCAF15-RBM39 ternary complex formation; format: binding; conditions: His-tagged DCAF15 complex and biotin-carrying RBM39
Outline: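 Compounds, serially diluted 3-fold from 2 mM DMSO stocks, were incubated 1 h at room temperature with His-tagged DCAF15 complex and biotinylated RBM39 (mixture at 408 nM each, 2.04×). The buffer was 50 mM HEPES pH 7.5, 100 mM NaCl, 2 mM MgCl2, 2 mM TCEP. Ni-chelate acceptor and streptavidin donor beads were added sequentially (1–2 h each), and the AlphaLISA signal was titrated.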

DCAF15 = DCAF15 (Homo sapiens, UniProt Q66K64); assay: HTRF competition assay, binary interaction between compounds and DCAF15; format: binding; conditions: competition with Alexa Fluor 647 tracer, His-tagged DCAF15 complex
Outline: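 Compounds, 3-fold serially diluted in DMSO, competed with an Alexa Fluor 647 tracer (612 nM, 2.04× stock) for His-tagged DCAF15 complex (32 nM, 4× stock) premixed 15 min with anti-6His-Eu cryptate. Buffer was 25 mM HEPES pH 7.5, 100 mM NaCl, 0.5 mM TCEP. After 1 h at RT, the 615/666 nm ratio gave titration curves.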

RBM39 = molecular target: T1, RBM39 (Homo sapiens, UniProt Q14498+Q66K64); assay: Western blot assay for degradation of RBM39 in HCT116 cells; format: cell-based; conditions: HCT-116, numeric values
T1 construct: endogenous in cells; host or cells: HCT116
T1 sequence (Q66K64 whole entry): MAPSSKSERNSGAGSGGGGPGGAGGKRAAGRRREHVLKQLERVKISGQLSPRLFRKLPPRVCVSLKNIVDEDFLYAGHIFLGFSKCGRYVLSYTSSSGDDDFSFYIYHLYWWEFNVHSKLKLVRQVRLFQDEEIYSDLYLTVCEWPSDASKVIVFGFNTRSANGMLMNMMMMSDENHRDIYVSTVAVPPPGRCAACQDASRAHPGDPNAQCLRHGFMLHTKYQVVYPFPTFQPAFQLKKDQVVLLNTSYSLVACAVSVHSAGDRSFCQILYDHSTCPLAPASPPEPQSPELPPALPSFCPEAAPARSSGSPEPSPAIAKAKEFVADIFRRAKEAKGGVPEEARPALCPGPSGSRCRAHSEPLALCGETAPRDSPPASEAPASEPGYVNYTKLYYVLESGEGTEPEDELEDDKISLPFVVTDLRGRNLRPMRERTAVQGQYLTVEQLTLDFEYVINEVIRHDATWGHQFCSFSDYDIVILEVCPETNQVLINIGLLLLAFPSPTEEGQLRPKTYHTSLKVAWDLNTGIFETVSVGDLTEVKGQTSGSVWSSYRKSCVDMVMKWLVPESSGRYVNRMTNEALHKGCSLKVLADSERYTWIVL
T1 sequence (Q14498 2-530): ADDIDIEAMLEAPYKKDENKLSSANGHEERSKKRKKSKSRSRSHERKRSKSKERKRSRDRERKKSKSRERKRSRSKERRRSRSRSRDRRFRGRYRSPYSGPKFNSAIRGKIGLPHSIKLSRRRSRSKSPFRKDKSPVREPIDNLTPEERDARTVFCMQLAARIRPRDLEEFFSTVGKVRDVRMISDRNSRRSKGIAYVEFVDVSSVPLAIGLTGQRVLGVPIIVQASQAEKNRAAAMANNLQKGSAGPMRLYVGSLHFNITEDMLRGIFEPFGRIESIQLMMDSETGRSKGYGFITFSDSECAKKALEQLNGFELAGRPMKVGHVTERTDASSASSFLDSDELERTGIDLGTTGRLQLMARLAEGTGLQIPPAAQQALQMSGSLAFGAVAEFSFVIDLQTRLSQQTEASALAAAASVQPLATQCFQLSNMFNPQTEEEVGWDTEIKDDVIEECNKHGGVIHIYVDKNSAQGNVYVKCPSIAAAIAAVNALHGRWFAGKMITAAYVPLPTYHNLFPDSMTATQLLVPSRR
T1 sequence (Q16531 whole entry, further chain): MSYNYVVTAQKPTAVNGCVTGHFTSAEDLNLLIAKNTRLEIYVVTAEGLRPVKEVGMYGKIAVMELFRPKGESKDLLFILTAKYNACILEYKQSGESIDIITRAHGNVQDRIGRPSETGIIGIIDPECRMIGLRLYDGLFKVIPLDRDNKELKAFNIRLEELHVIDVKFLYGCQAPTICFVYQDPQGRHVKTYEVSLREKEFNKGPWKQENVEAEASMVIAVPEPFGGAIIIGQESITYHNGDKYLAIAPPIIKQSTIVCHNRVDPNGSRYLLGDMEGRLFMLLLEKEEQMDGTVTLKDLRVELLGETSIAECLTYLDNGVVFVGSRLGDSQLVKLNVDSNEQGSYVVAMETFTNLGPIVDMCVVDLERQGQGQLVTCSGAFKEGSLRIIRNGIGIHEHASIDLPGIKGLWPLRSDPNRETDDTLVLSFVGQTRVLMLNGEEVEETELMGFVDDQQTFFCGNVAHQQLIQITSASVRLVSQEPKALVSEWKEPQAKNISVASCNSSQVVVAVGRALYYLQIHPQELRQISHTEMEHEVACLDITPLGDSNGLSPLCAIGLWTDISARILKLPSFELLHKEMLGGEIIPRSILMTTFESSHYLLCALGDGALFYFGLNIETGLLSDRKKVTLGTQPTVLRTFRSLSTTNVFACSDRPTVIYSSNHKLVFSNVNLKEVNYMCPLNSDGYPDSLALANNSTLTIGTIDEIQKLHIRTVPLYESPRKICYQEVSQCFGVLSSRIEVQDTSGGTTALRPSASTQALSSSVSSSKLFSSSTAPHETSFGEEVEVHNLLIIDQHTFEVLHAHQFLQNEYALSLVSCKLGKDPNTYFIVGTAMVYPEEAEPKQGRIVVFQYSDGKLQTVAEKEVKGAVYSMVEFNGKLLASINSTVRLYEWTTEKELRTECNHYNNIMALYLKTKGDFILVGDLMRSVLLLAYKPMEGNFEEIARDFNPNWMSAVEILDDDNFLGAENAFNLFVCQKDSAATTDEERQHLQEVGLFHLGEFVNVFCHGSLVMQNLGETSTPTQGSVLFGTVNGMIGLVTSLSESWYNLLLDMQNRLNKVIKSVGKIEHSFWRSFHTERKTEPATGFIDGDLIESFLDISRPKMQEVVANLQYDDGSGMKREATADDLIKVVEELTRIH
Description: HCT116 cells were used with passage numbers ranging from 13 to 25. Cells were seeded in 12-well plated at a density of 1 million cells per well in 1 mL cell culture medium containing McCoy's 5A medium (Cat. #16600082, ThermoFisher, Waltham, MA), 10% Fetal Bovine Serum (Cat. #26140, ThermoFisher, Waltham, MA) and 1% Pen-Strep (Cat. #. 15070063, ThermoFisher, Waltham, MA) and incubated overnight. The next morning, compounds were serially diluted (1:3, 9 points) in the medium separately and were prepared 2× the final assay concentration. Subsequently, 1.0 mL medium containing DMSO or the appropriate concentration of each compound was added to respective wells. The final DMSO concentration in each well was 0.1%. After 24 hour incubation with compounds, cell were harvested (approximately 90-100% confluency at the time of harvest). […] Lysates were then sonicated in a sonication bath (3 pulses of 10 sec each with 1 min incubation on ice between each pulse). Samples were then centrifuged for 20 min at 14,000 rpm for 20 min. Supernatants were then transferred to fresh microfuge tubes and stored frozen at −80° C. until use. Total protein quantitation in lysate samples was done using the BCA protein quantitation kit following the manufacturer's instructions. For polyacrylamide gel electrophoresis, each sample (15-30 […]), was diluted with Laemmli sample buffer (Cat. #. 1610747, BioRad, Hercules, CA) by adding 9 ul of lysate to 3 ul of sample buffer containing 10% β-mercaptoethanol. Samples were then denatured at 95° C. for 5 minutes in a heat block, centrifuged at 14,000 rpm for 5 min, and placed on ice. Subsequently, 12 ul of each sample was loaded on 4-20% Tris/Glycine gels and electrophoresed in 1×Tris/Glycine SDS buffer at 80 (constant) volts for 2 h. Resolved samples were then transferred from gels to PVDF membrane using the BioRad Turbo-transfer unit with the Turbo default program (Cat. #. 1704150EDU, BioRad, Hercules, CA). For immunoblotting, membranes were first blocked for 1 hour at room temperature using Odyssey Blocking Buffer (Cat. #: 927-60001, Li-cor, Lincoln, NE) with continuous rocking. Membrane was then incubated with primary antibodies, anti-RBM39 (Sigma Cat. #: HPA001591, St. Louis, MO) and anti-β-actin (Cell Signaling Cat. #3700S, Danvers, MA), diluted 1000 fold each, at 4° C. for overnight. […] Band intensity in images was quantified using the Image Studio Lite software (Version 5.2). Signal intensity for RBM-39 specific bands were normalized using the signal intensity for β-actin-specific band, and percent degradation was assessed by comparing RBM39 signal in compound-treated vs. DMSO-treated samples.

| pEC50 (DCAF15/RBM39) | pIC50 (DCAF15) | Dmax (RBM39) | Compound |
| --- | --- | --- | --- |
| > 6.00 | < 4.00 | 97.6% | O=C(COc1ccc(S(=O)(=O)Nc2ccc(Cl)c3c(Cl)c[nH]c23)cc1)NC1CC1 [Compound 39] |
| 5.00 to 6.00 | 5.00 to 6.00 | 100% | CCS(=O)(=O)CCOc1ccc(S(=O)(=O)Nc2ccc(Cl)c3c(Cl)c[nH]c23)cc1 [Compound 71] |
| > 6.00 | 5.00 to 6.00 | 94.8% | O=C(NC1CC1)c1ccc(S(=O)(=O)Nc2ccc(Cl)c3c(Cl)c[nH]c23)cc1 [Compound 153] |
| 5.00 to 6.00 | 5.00 to 6.00 | – | CC(C)C[C@H](NC(=O)c1ccc(S(=O)(=O)Nc2ccc(Cl)c3c(Cl)c[nH]c23)c(F)c1)c1nc2ccccc2[nH]1 [Compound 212] |
| > 6.00 | 5.00 to 6.00 | – | CC(C)C[C@H](NC(=O)c1cccc(S(=O)(=O)Nc2ccc(Cl)c3c(Cl)c[nH]c23)c1F)c1nc2ccccc2[nH]1 [Compound 213] |
| 5.00 to 6.00 | 5.00 to 6.00 | – | O=C(c1cccc(S(=O)(=O)Nc2ccc(Cl)c3c(Cl)c[nH]c23)c1F)N1CC(N2CCc3ccccc32)C1 [Compound 214] |
| 5.00 to 6.00 | 4.00 to 5.00 | – | O=C(c1ccc(S(=O)(=O)Nc2ccc(Cl)c3c(Cl)c[nH]c23)c(F)c1)N1CC(N2CCc3ccccc32)C1 [Compound 215] |
| > 6.00 | > 6.00 | – | O=C(c1cccc(S(=O)(=O)Nc2ccc(Cl)c3c(Cl)c[nH]c23)c1F)N1CC[C@H](n2ccnn2)C1 [Compound 216] |
| > 6.00 | > 6.00 | – | O=C(c1ccc(S(=O)(=O)Nc2ccc(Cl)c3c(Cl)c[nH]c23)c(F)c1)N1CC[C@H](n2ccnn2)C1 [Compound 217] |
| > 6.00 | 5.00 to 6.00 | 100% | O=C(c1cccc(S(=O)(=O)Nc2ccc(Cl)c3c(Cl)c[nH]c23)c1)N1CCOCC1 [Compound 218] |
| > 6.00 | > 6.00 | – | O=C(c1cccc(S(=O)(=O)Nc2ccc(Cl)c3c(Cl)c[nH]c23)c1F)N1CCC(Oc2cccnc2)CC1 [Compound 219] |
| > 6.00 | 5.00 to 6.00 | – | O=C(c1ccc(S(=O)(=O)Nc2ccc(Cl)c3c(Cl)c[nH]c23)c(F)c1)N1CCC(Oc2cccnc2)CC1 [Compound 220] |
| > 6.00 | > 6.00 | – | O=C(c1cccc(S(=O)(=O)Nc2ccc(Cl)c3c(Cl)c[nH]c23)c1F)N1CCC(c2ccnc(C(F)F)c2)CC1 [Compound 221] |
| < 4.00 | < 4.00 | – | O=C(c1ccc(S(=O)(=O)Nc2ccc(Cl)c3c(Cl)c[nH]c23)c(F)c1)N1CCC(c2ccnc(C(F)F)c2)CC1 [Compound 222] |
| > 6.00 | 5.00 to 6.00 | – | CN1CCN(C(=O)c2ccc(S(=O)(=O)Nc3ccc(Cl)c4c(Cl)c[nH]c34)cc2)CC1 [Compound 223] |
| > 6.00 | 5.00 to 6.00 | – | CC(C)(C)OC(=O)N1CCC2(CC1)CN(C(=O)c1cccc(S(=O)(=O)Nc3ccc(Cl)c4c(Cl)c[nH]c34)c1F)CCO2 [Compound 224] |

| pEC50 (DCAF15/RBM39) | pIC50 (DCAF15) | Dmax (RBM39) | Compound |
| --- | --- | --- | --- |
| 5.00 to 6.00 | 5.00 to 6.00 | – | CC(C)(C)OC(=O)N1CCC2(CC1)CN(C(=O)c1ccc(S(=O)(=O)Nc3ccc(Cl)c4c(Cl)c[nH]c34)c(F)c1)CCO2 [Compound 225] |
| > 6.00 | 5.00 to 6.00 | – | O=C(c1cccc(S(=O)(=O)Nc2ccc(Cl)c3c(Cl)c[nH]c23)c1F)N1CCc2[nH]c(-c3ccccc3)nc2C1 [Compound 226] |
| 5.00 to 6.00 | 5.00 to 6.00 | – | O=C(c1ccc(S(=O)(=O)Nc2ccc(Cl)c3c(Cl)c[nH]c23)c(F)c1)N1CCc2[nH]c(-c3ccccc3)nc2C1 [Compound 227] |
| > 6.00 | > 6.00 | – | Cc1nc2c(n1C)CCN(C(=O)c1cccc(S(=O)(=O)Nc3ccc(Cl)c4c(Cl)c[nH]c34)c1F)C2 [Compound 228] |
| > 6.00 | > 6.00 | – | Cc1nc2c(n1C)CCN(C(=O)c1ccc(S(=O)(=O)Nc3ccc(Cl)c4c(Cl)c[nH]c34)c(F)c1)C2 [Compound 229] |
| 5.00 to 6.00 | 5.00 to 6.00 | – | CC(C)CCOc1ccc(S(=O)(=O)Nc2ccc(Cl)c3c(Cl)c[nH]c23)cc1 [Compound 230] |
| 5.00 to 6.00 | 5.00 to 6.00 | – | COCCOc1ccc(S(=O)(=O)Nc2ccc(Cl)c3c(Cl)c[nH]c23)cc1Br [Compound 231] |
| 5.00 to 6.00 | < 4.00 | – | CCOCCOc1ccc(S(=O)(=O)Nc2ccc(Cl)c3c(Cl)c[nH]c23)cc1C(C)C [Compound 232] |
| 4.00 to 5.00 | 4.00 to 5.00 | – | CC(C)c1cc(S(=O)(=O)Nc2ccc(Cl)c3c(Cl)c[nH]c23)ccc1OCc1ccccc1 [Compound 233] |
| 5.00 to 6.00 | < 4.00 | – | O=S(=O)(Nc1ccc(Cl)c2c(Cl)c[nH]c12)c1ccc(Oc2ccc(F)cc2)c(Br)c1 [Compound 234] |
| 5.00 to 6.00 | 5.00 to 6.00 | – | NC(=O)c1cc(Cl)cc(S(=O)(=O)Nc2ccc(Cl)c3c(Cl)c[nH]c23)c1 [Compound 235] |
| > 6.00 | 5.00 to 6.00 | – | CNC(=O)c1cccc(S(=O)(=O)Nc2ccc(Cl)c3c(Cl)c[nH]c23)c1F [Compound 236] |
| 5.00 to 6.00 | 4.00 to 5.00 | – | CNC(=O)c1ccc(F)c(S(=O)(=O)Nc2ccc(Cl)c3c(Cl)c[nH]c23)c1 [Compound 237] |
| 5.00 to 6.00 | 5.00 to 6.00 | – | CN(C)C(=O)c1cccc(S(=O)(=O)Nc2ccc(Cl)c3c(Cl)c[nH]c23)c1 [Compound 238] |
| > 6.00 | < 4.00 | – | CC(C)CNC(=O)c1ccc(S(=O)(=O)Nc2ccc(Cl)c3c(Cl)c[nH]c23)cc1 [Compound 239] |
| > 6.00 | 5.00 to 6.00 | – | CC(C)CNC(=O)c1ccc(S(=O)(=O)Nc2ccc(Cl)c3c(Cl)c[nH]c23)c(F)c1 [Compound 240] |
